According to patent US9944654B2, “Nargenicin compounds and uses thereof as antibacterial agents” (priority 2014, dated 2018):
≈ marks a conversion by molar mass, not a printed value. Where two headings read alike, the source gives them in different places.

Experiments:
[1] = system: Staphylococcus aureus MB6266 (MRSA COL); assay: Nargenicin antibacterial assay (MIC), S. aureus; format: cell-based; conditions: Staphylococcus aureus, MRSA, read-out: S. aureus COL (MIC), MHII broth + 50% human serum; * = some reduction of growth versus control at […]
[2] = system: Streptococcus pneumoniae MB6357 (CL 2883); assay: Nargenicin antibacterial assay (MIC), S. pneumoniae; format: cell-based; conditions: Streptococcus pneumoniae, read-out: S. pneumoniae MB2883 (MIC), Isosensitest broth; * = some reduction of growth versus control at […]
[3] = biological target: T1, S. aureus DnaE (DNA polymerase III α-subunit homolog from Staphylococcus aureus) (Staphylococcus aureus, UniProt Q5HF71); assay: biochemical; format: biochemical
T1 construct: SaDnaE (S. aureus DnaE residues 1-1065); 6xHis (N); made in house; host or cells: E. coli BL21-AI
T1 sequence (Q5HF71 1-1065): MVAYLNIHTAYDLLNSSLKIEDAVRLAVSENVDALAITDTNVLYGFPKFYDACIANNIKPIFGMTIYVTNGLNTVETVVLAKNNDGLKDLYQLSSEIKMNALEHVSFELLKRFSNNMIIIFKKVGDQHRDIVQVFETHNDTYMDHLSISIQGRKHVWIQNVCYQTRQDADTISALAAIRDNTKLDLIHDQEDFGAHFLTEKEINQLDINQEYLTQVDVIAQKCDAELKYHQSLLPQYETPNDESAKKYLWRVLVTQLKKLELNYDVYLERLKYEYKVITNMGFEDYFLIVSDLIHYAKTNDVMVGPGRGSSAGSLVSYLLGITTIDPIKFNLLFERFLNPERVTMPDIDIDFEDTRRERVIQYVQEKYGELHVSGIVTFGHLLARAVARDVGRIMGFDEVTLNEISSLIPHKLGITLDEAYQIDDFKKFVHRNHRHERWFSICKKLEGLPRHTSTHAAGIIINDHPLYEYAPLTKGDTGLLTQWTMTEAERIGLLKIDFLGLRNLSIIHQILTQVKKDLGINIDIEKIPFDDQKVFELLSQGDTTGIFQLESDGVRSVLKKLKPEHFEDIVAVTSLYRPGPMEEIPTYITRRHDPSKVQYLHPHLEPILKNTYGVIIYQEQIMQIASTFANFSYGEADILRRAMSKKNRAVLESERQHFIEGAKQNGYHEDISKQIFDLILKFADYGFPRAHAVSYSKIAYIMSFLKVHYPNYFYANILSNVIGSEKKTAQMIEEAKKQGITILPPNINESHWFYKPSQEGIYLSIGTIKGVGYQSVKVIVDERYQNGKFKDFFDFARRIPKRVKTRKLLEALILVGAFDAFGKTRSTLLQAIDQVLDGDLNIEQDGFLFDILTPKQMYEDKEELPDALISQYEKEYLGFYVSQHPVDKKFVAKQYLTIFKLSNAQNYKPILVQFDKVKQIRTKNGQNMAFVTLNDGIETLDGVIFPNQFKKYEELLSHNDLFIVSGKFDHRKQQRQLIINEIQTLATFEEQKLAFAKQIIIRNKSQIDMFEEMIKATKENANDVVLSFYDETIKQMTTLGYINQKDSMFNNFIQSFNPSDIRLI
Summary of the method: (§1)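 3H-dTTP (0.011 mM) incorporation into DNase I-activated calf thymus DNA, alongside the other three dNTPs at 0.025 mM, measured by filter counting after TCA precipitation. Reactions ran 30 min at 30° C., started with purified N-His DnaE: 0.8 μg/ml for E. coli, 0.05 μg/ml for S. aureus.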

[4] = biological target: T2, E. coli DnaE (DNA polymerase III α-subunit from Escherichia coli) (Escherichia coli, UniProt P10443); assay: In vitro DnaE single enzyme assay (E. coli); format: biochemical
T2 construct: EcDnaE (E. coli DnaE residues 1-1160); 6xHis (N); made in house; host or cells: E. coli BL21(DE3)
T2 sequence (P10443 whole entry, the tested form may be a part): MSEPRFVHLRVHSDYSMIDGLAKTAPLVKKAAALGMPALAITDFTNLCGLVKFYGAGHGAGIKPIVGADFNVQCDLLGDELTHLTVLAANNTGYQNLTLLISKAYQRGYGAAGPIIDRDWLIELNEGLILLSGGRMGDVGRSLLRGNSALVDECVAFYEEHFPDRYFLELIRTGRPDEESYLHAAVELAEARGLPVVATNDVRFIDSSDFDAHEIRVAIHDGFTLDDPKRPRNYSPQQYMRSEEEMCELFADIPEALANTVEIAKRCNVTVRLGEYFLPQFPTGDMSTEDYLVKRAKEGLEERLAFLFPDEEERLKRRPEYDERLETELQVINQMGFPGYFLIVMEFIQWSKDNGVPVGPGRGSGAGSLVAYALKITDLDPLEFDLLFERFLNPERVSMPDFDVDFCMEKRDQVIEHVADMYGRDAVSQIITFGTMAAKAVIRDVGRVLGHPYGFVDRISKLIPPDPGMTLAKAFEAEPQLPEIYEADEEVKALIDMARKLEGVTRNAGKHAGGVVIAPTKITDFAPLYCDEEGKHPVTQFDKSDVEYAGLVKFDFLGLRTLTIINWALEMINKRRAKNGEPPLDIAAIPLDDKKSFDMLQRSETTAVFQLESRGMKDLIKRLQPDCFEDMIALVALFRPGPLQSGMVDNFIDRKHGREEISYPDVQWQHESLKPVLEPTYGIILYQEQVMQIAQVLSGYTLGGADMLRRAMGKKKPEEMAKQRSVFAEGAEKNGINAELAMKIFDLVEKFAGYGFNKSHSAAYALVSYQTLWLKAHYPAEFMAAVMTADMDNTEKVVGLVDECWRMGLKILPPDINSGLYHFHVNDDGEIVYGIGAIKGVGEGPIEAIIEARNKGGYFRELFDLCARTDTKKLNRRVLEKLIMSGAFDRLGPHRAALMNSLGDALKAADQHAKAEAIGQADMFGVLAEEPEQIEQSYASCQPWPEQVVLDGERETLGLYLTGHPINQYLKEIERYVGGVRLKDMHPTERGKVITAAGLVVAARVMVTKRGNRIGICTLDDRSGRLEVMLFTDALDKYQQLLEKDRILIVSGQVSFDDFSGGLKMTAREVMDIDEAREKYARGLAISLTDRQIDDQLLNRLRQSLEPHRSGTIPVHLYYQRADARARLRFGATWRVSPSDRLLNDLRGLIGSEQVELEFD
Summary of the method: as §1

[5] = system: Pseudomonas aeruginosa MB5890 (CB1101, efflux-deleted); assay: microbe, parasite or virus in culture; format: cell-based; conditions: Pseudomonas aeruginosa, read-out: P. aeruginosa MB5890 efflux-del (MIC), MHII broth; * = some reduction of growth versus control at […]
[6] = system: Escherichia coli MB5747 (LS 883, tolC); assay: microbe, parasite or virus in culture; format: cell-based; conditions: Escherichia coli, read-out: E. coli LS883 tolC (MIC), MHII broth; * = some reduction of growth versus control at […]
[7] = read-out: E. coli DnaE IC50 (converted)

Compound | MIC [1] | MIC [2] | IC50 ([3]; S. aureus DnaE IC50) | IC50 [4, 7] | MIC [5] | MIC [6] | IC50 ([3]; read-out: S. aureus DnaE IC50 (converted)) | IC50 ([4]; E. coli DnaE IC50)
C=CC[C@@H]1OC(=O)[C@@H](OC)C[C@H]2C=C[C@H]3[C@H]4O[C@]2(/C(C)=C/[C@H]1C)[C@@H]3[C@H](O)[C@@H](C)[C@H]4OC(=O)c1ccc[nH]1 [Example 54] | 64 µg/mL | > 128 µg/mL | 0.088 µM | 60.6 µM | > 128 µg/mL | 64 µg/mL (≈ 125 µM) | – | –
C=CC[C@H]1OC(=O)[C@@H](OC)C[C@H]2C=C[C@H]3[C@H]4O[C@]2(/C(C)=C/[C@H]1C)[C@@H]3[C@H](O)[C@@H](C)[C@H]4OC(=O)c1ccc[nH]1 [Example 55] | 2 µg/mL | > 64 µg/mL | < 0.0117 µM | 11.7 µM | 32 µg/mL (≈ 62.5 µM) | 2 µg/mL (≈ 3.91 µM) | – | –
CO[C@H]1CC2C=C[C@H]3[C@H]4O[C@]2(/C(C)=C/[C@@H](C)[C@@H](C(C)OC(C)=O)OC1=O)[C@@H]3[C@H](O)[C@@H](C)[C@H]4OC(=O)c1ccc[nH]1 (stereo partly drawn) [Example 57] | 8 µg/mL | 64 µg/mL (≈ 115 µM) | < 0.0108 µM | 80.7 µM | > 128 µg/mL | 4 µg/mL (≈ 7.17 µM) | – | –
CO[C@H]1C[C@H]2C=C[C@H]3[C@H]4O[C@]2(/C(C)=C/[C@@H](C)[C@@H]([C@@H](C)OC(=O)CCl)OC1=O)[C@@H]3[C@H](O)[C@@H](C)[C@H]4OC(=O)c1ccc[nH]1 [Example 59] | 0.25 µg/mL | 64 µg/mL (≈ 108 µM) | < 0.0101 µM | 16.9 µM | 16 µg/mL (≈ 27 µM) | 0.25 µg/mL (≈ 0.422 µM) | – | –
CO[C@H]1C[C@H]2C=CC3C4[C@H](O)[C@@H](C)[C@@H](OC(=O)c5ccc[nH]5)[C@@H]3O[C@]42/C(C)=C/[C@@H](C)[C@@H]([C@@H](C)OC(=O)n2nnnc2N)OC1=O [Example 64] | 4 µg/mL | > 128 µg/mL | < 0.00957 µM | 46.3 µM | 128 µg/mL (≈ 204 µM) | 4 µg/mL (≈ 6.38 µM) | – | –
CO[C@H]1C[C@H]2C=CC3C4[C@H](O)[C@@H](C)[C@@H](OC(=O)c5ccc[nH]5)[C@@H]3O[C@]42/C(C)=C/[C@@H](C)[C@@H]([C@@H](C)OC(=O)Nc2nnn[nH]2)OC1=O [Example 65] | 2 µg/mL | > 128 µg/mL | < 0.00957 µM | 16 µM | 64 µg/mL (≈ 102 µM) | 2 µg/mL (≈ 3.19 µM) | – | –
CO[C@H]1C[C@H]2C=C[C@H]3[C@H]4O[C@]2(/C(C)=C/[C@@H](C)[C@@H]([C@@H](C)OC(=O)c2ccccc2)OC1=O)[C@@H]3[C@H](O)[C@@H](C)[C@H]4OC(=O)c1ccc[nH]1 [Example 67] | > 128 µg/mL | > 128 µg/mL | – | – | > 128 µg/mL | > 128 µg/mL | 0.0113 µM | 12.9 µM
CO[C@H]1C[C@H]2C=CC3C4[C@H](O)[C@@H](C)[C@@H](OC(=O)c5ccc[nH]5)[C@@H]3O[C@]42/C(C)=C/[C@@H](C)[C@@H]([C@@H](C)OC(=O)C(=O)OCc2ccncc2)OC1=O.O=C(O)C(F)(F)F [Example 69] | 2 µg/mL | > 128 µg/mL | < 0.00757 µM | 6.31 µM | 32 µg/mL | 1 µg/mL | – | –
